Calls of active or inactive are those of the source. No cut-off for these calls is given here.
Key:
Assay type in all cases: functional, organism-based
Leishmania infantum [1] = assay: Antiparasitic activity against promastigotes of Leishmania infantum MHOM-TN-80-IPT1 assessed as decrease in parasite vitality at 1 to 5 mM measured at 4th day by microscopic analysis
Leishmania infantum [2] = assay: Increase in vitality of Leishmania infantum MHOM-TN-80-IPT1 promastigotes at 1 to 5 mM measured at 7th day by microscopic analysis
Leishmania infantum [3] = assay: Increase in density of Leishmania infantum MHOM-TN-80-IPT1 promastigotes at 1 to 5 mM measured at 7th day by microscopic analysis
Leishmania infantum [4] = assay: Antiparasitic activity against promastigotes of Leishmania infantum MHOM-TN-80-IPT1 assessed as decrease in parasite density at 1 to 5 mM measured at 4th day by microscopic analysis
Leishmania infantum [5] = assay: Antiparasitic activity against promastigotes of Leishmania infantum MHOM-TN-80-IPT1 assessed as decrease in promastigote vitality at 5 mM by counting chamber
Leishmania infantum [6] = assay: Antiparasitic activity against promastigotes of Leishmania infantum MHOM-TN-80-IPT1 assessed as decrease in parasite density at 1 to 5 mM measured at 4th and 7th day by microscopic analysis
Leishmania infantum [7] = assay: Antiparasitic activity against promastigotes of Leishmania infantum MHOM-TN-80-IPT1 assessed as decrease in parasite density up to 3 mM measured at 4th and 7th day by microscopic analysis

SMILES	inhibition (Leishmania infantum [1])	Activity (Leishmania infantum [2])	Activity (Leishmania infantum [3])	inhibition (Leishmania infantum [4])	inhibition (Leishmania infantum [5])	inhibition (Leishmania infantum [6])	inhibition (Leishmania infantum [7])
NCCCCC=O	Active	Active	Active	Active			
O=CCCNCCCCNCCC=O					Active	Active	
NCCCC=O	Active	Active	Active	Active			
NCCCNCCCC=O							Active
